The text below walks through data of patent publication US9981916B2 (Genentech, Inc., priority 2013, dated 2018).

The target of this assay is T1, RORc ligand binding domain (Homo sapiens, UniProt P51449).
T1 construct: host or cells: E. coli
T1 sequence (P51449 269-508 limits assumed): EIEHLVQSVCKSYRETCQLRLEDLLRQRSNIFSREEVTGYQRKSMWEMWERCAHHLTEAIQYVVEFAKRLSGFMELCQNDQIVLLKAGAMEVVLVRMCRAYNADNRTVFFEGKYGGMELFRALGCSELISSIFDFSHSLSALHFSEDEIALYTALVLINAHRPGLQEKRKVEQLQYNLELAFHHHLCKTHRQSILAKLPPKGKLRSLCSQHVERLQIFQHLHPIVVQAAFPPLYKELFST
Briefly: In vitro RORc ligand binding assay (25-[3H]hydroxycholesterol displacement, filter binding). As to conditions: 6 nM 25-[3H]hydroxycholesterol, 0.6 ug/mL RORc receptor, 3 h at 25° C. The method in brief:
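Compounds in 5% DMSO, either dose-response or screened at 1 and 10 uM, competed with 6 nM 25-[3H]hydroxycholesterol for 0.6 ug/mL RORc over 3 h at 25° C (HEPES pH 7.4, NaCl, MgCl2, DTT, BSA buffer). Bound tracer was filter-harvested and counted; nonspecific binding came from 1 uM 25-hydroxycholesterol.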

As usually defined, the IC50 is the midpoint of a concentration-inhibition curve. Low readings indicate higher potency, high ones lower potency. Compound `CCc1nnc([C@@]23CC[C@@H](c4cc(-c5c(F)cccc5F)nnc42)C3(C)C)s1` [Example 124, (5R,8R)-3-(2,6-difluorophenyl)-9,9-dimethyl-8-(5-ethyl-1,3,4-thiadiazol-2-yl)-5,6,7,8-tetrahydro-5,8-methanocinnoline] returned a concentration for half-maximal inhibition (IC50) of 117 nM. In turn, `Cn1nc([C@]23CC[C@H](c4cc(-c5c(F)cccc5F)nnc42)C3(C)C)oc1=O` [Example 263, 5-((5S,8S)-3-(2,6-difluorophenyl)-9,9-dimethyl-5,6,7,8-tetrahydro-5,8-methanocinnolin-8-yl)-3-methyl-1,3,4-oxadiazol-2(3H)-one] yielded an IC50 of 471 nM. Regarding `Cc1nnc(N(C)C[C@@]23CC[C@@H](c4cc(-c5c(F)cccc5F)nnc42)C3(C)C)o1` [Example 146, N-(((5R,8S)-3-(2,6-difluorophenyl)-9,9-dimethyl-5,6,7,8-tetrahydro-5,8-methanocinnolin-8-yl)methyl)-N,5-dimethyl-1,3,4-oxadiazol-2-amine], the IC50 worked out at 11 nM. `CC1(C)[C@H]2CC[C@]1(Cn1ccccc1=O)c1nnc(-c3c(F)cccc3F)cc12` [Example 121, 1-{[(5R,8S)-3-(2,6-difluorophenyl)-9,9-dimethyl-6,7-dihydro-5,8-methanocinnolin-8(5H)-yl]methyl}pyridin-2(1H)-one] registered an IC50 of 199 nM.

In turn, `CC1(C)[C@@H]2CC[C@@]1(C(=O)N1CCC1)c1nnc(-c3c(F)cccc3F)cc12` [Example 49, azetidin-1-yl[(5S,8S)-3-(2,6-difluorophenyl)-9,9-dimethyl-6,7-dihydro-5,8-methanocinnolin-8(5H)-yl]methanone] registered an IC50 of 44 nM. Compound `Cc1nnc([C@@]23CC[C@@H](c4cc(Oc5c(F)cccc5F)nnc42)C3(C)C)o1` [Example 336, 2-((5R,8R)-3-(2,6-difluorophenoxy)-9,9-dimethyl-5,6,7,8-tetrahydro-5,8-methanocinnolin-8-yl)-5-methyl-1,3,4-oxadiazole] returned a half-maximal inhibitory concentration (IC50) of 49 nM. `Cc1nc(C[C@]23CC[C@H](c4cc(-c5ccccc5F)nnc42)C3(C)C)no1` [Example 39, (5S,8S)-3-(2-fluorophenyl)-9,9-dimethyl-8-[(5-methyl-1,2,4-oxadiazol-3-yl)methyl]-5,6,7,8-tetrahydro-5,8-methanocinnoline] registered a half-maximal inhibitory concentration (IC50) of 1730 nM.

As to `Cc1nn(C)/c(=N\[C@@]23CC[C@@H](c4cc(-c5ccccc5F)nnc42)C3(C)C)o1` [Example 229, (5R,8R,E)-N-(3,5-dimethyl-1,3,4-oxadiazol-2(3H)-ylidene)-3-(2-fluorophenyl)-9,9-dimethyl-5,6,7,8-tetrahydro-5,8-methanocinnolin-8-amine], the IC50 was found to be 1530 nM. The result for `CC1(C)[C@H]2CC[C@]1(c1ccno1)c1nnc(-c3c(F)cccc3F)cc12` [Example 194, 5-((5R,8R)-3-(2,6-difluorophenyl)-9,9-dimethyl-5,6,7,8-tetrahydro-5,8-methanocinnolin-8-yl)isoxazole] reads 50 nM; that for `Cc1nnc(N(Cc2ccccc2)C[C@@]23CC[C@@H](c4cc(-c5c(F)cccc5F)nnc42)C3(C)C)o1` [Example 266, N-benzyl-N-(((5R,8S)-3-(2,6-difluorophenyl)-9,9-dimethyl-5,6,7,8-tetrahydro-5,8-methanocinnolin-8-yl)methyl)-5-methyl-1,3,4-oxadiazol-2-amine], 214 nM. Consider `CC1(C)[C@@H]2CC[C@@]1(COCc1ccc(C(N)=O)cc1)c1nnc(-c3ccccc3F)cc12` [Example 72, 4-({[(5S,8S)-3-(2-fluorophenyl)-9,9-dimethyl-6,7-dihydro-5,8-methanocinnolin-8(5H)-yl]methoxy}methyl) benzamide], for which the IC50 came out at 158 nM. For the compound `CCOC(=O)N(CC(F)F)C[C@@]12CC[C@@H](c3cc(-c4c(F)cccc4F)nnc31)C2(C)C` [Example 292, ethyl (2,2-difluoroethyl)(((5R,8S)-3-(2,6-difluorophenyl)-9,9-dimethyl-5,6,7,8-tetrahydro-5,8-methanocinnolin-8-yl)methyl)carbamate], the IC50 was found to be 7 nM. In the case of `CC1(O)CN(C(=O)[C@]23CC[C@H](c4cc(-c5c(F)cccc5F)nnc42)C3(C)C)C1` [Example 92, [(5S,8S)-3-(2,6-difluorophenyl)-9,9-dimethyl-6,7-dihydro-5,8-methanocinnolin-8(5H)-yl](3-hydroxy-3-methylazetidin-1-yl)methanone] it was 2990 nM; in that of `Cc1ncoc1[C@]12CC[C@H](c3cc(-c4c(F)cccc4F)nnc31)C2(C)C` [Example 227, 5-((5S,8S)-3-(2,6-difluorophenyl)-9,9-dimethyl-5,6,7,8-tetrahydro-5,8-methanocinnolin-8-yl)-4-methyloxazole], 139 nM; in that of `Cc1noc([C@@]23CC[C@@H](c4cc(-c5c(F)cccc5F)nnc42)C3(C)C)n1` [Example 64, (5R,8R)-3-(2,6-difluorophenyl)-9,9-dimethyl-8-(3-methyl-1,2,4-oxadiazol-5-yl)-5,6,7,8-tetrahydro-5,8-methanocinnoline], 67 nM. With `CCN(C[C@@]12CC[C@@H](c3cc(-c4c(F)cccc4F)nnc31)C2(C)C)C(C)=O` [Example 157, N-(((5R,8S)-3-(2,6-difluorophenyl)-9,9-dimethyl-5,6,7,8-tetrahydro-5,8-methanocinnolin-8-yl)methyl)-N-ethylacetamide], the IC50 turned out to be 19 nM. The compound `CC1(C)[C@H]2CC[C@]1(c1cccnc1)c1nnc(-c3c(F)cccc3F)cc12` [Example 154, (5R,8S)-3-(2,6-difluorophenyl)-9,9-dimethyl-8-(pyridin-3-yl)-5,6,7,8-tetrahydro-5,8-methanocinnoline] displayed an IC50 of 23 nM. In the case of `CC1(C)[C@H]2CC[C@]1(c1nnc(C3CC3)o1)c1nnc(-c3c(F)cccc3F)cc12` [Example 123, (5R,8R)-3-(2,6-difluorophenyl)-9,9-dimethyl-8-(5-cyclopropyl-1,3,4-oxadiazol-2-yl)-5,6,7,8-tetrahydro-5,8-methanocinnoline] it was 109 nM; in that of `CC1(C)[C@H]2CC[C@]1(N1CCNC1=O)c1nnc(-c3c(F)cccc3F)cc12` [Example 184, 1-((5R,8R)-3-(2,6-difluorophenyl)-9,9-dimethyl-5,6,7,8-tetrahydro-5,8-methanocinnolin-8-yl)imidazolidin-2-one], 171 nM.

In turn, `Cc1nnc(N(C)[C@@]23CC[C@@H](c4cc(-c5ccccc5F)nnc42)C3(C)C)o1` [Example 230, N-((5R,8R)-3-(2-fluorophenyl)-9,9-dimethyl-5,6,7,8-tetrahydro-5,8-methanocinnolin-8-yl)-N,5-dimethyl-1,3,4-oxadiazol-2-amine] yielded a half-inhibitory concentration (IC50) of 1820 nM. In the case of `CC1(C)[C@@H]2CC[C@@]1(C(=O)N1CC[C@@H](C#N)C1)c1nnc(-c3c(F)cccc3F)cc12` [Example 236, (R)-1-((5S,8S)-3-(2,6-difluorophenyl)-9,9-dimethyl-5,6,7,8-tetrahydro-5,8-methanocinnoline-8-carbonyl)pyrrolidine-3-carbonitrile] it was 405 nM; in that of `CC1(C)[C@@H]2CC[C@@]1(C(=O)N1C[C@@H]3C[C@H]1CN3S(C)(=O)=O)c1nnc(-c3c(F)cccc3F)cc12` [Example 241, ((5S,8S)-3-(2,6-difluorophenyl)-9,9-dimethyl-5,6,7,8-tetrahydro-5,8-methanocinnolin-8-yl)((1S,4S)-5-(methylsulfonyl)-2,5-diazabicyclo[2.2.1]heptan-2-yl)methanone], 327 nM. Take `CC1(C)[C@@H]2CC[C@@]1(CC#N)c1nnc(-c3ccccc3F)cc12` [Example 16]: the half-inhibitory concentration (IC50) stood at 1550 nM.

The compound `CN([C@@]12CC[C@@H](c3cc(-c4c(F)cccc4F)nnc31)C2(C)C)S(=O)(=O)C(F)(F)F` [Example 319, N-((5R,8R)-3-(2,6-difluorophenyl)-9,9-dimethyl-5,6,7,8-tetrahydro-5,8-methanocinnolin-8-yl)-1,1,1-trifluoro-N-methylmethanesulfonamide] registered an IC50 of 52 nM. `CC1(C)[C@@H]2CC[C@@]1(C(=O)N1CCC(F)(F)C1)c1nnc(-c3c(F)cccc3F)cc12` [Example 207, ((5S,8S)-3-(2,6-difluorophenyl)-9,9-dimethyl-5,6,7,8-tetrahydro-5,8-methanocinnolin-8-yl)(3,3-difluoropyrrolidin-1-yl)methanone] showed an IC50 of 191 nM.

`CC1(C)[C@@H]2CC[C@@]1(C(=O)NC1CCC1)c1nnc(-c3c(F)cccc3F)cc12` [Example 201, (5S,8S)-N-cyclobutyl-3-(2,6-difluorophenyl)-9,9-dimethyl-5,6,7,8-tetrahydro-5,8-methanocinnoline-8-carboxamide]: the IC50 is 759 nM. The compound `COCC12CCC(c3cc(-c4ccccc4F)nnc31)C21CC1` (centres unmarked) [Example 40, 3′-(2-fluorophenyl)-8′-(methoxymethyl)-5′,6′,7′,8′-tetrahydro-spiro[cyclopropane-1,9′-[1,2]diaza[5,8]methanocinnoline]] returned an IC50 of 350 nM. Take `COC(=O)c1ccc(COC[C@]23CC[C@H](c4cc(-c5ccccc5F)nnc42)C3(C)C)cc1` [Example 63, methyl 4-({[(5S,8S)-3-(2-fluorophenyl)-9,9-dimethyl-6,7-dihydro-5,8-methanocinnolin-8(5H)-yl]methoxy}methyl) benzoate]: the IC50 stood at 136 nM. `Cc1noc([C@]23CC[C@H](c4cc(-c5c(F)cccc5F)nnc42)C3(C)C)n1` [Example 60, (5S,8S)-3-(2,6-difluorophenyl)-9,9-dimethyl-8-(3-methyl-1,2,4-oxadiazol-5-yl)-5,6,7,8-tetrahydro-5,8-methanocinnoline]: the IC50 is 415 nM.
